Structures can show the parent of a compound that is named as a salt. Where two headings read alike, the source gives them in different places.
Columns and labels:
A549 cell line = test: Oxygen consumption rate (OCR) and extracellular acidification rate (ECAR) in A549 cells; assay type: cell-based; conditions: Homo sapiens, A549, 3 hrs, control group set at 0%, phenformin set at 100%
Procedure: A549 cell line (purchased from ATCC-American Type Culture Collection (ATCC)), a lung cancer cell line, is treated with the compounds and OCR and ECAR of the cells are measured and thereby those compounds which show an improved effect compared to phenformin are selected.
The cells are plated on an XF96 cell culture plate containing RPMI1640 medium at a concentration of 5×10^3 cells and cultured in 37° C., 5% CO2 conditions to allow them to be attached thereto.
After 24 hours, the cells are treated with the drug at a concentration of 10 μM for 2 hours, the existing medium is washed with a medium for XF analysis (15 mM D-glucose, 15 mM sodium pyruvate, 4 mM L-glutamine, pH 7.4) to remove the medium using a Prep station and treated again with the drugs, and cultured in 37° C., non-CO2 conditions in the Prep station for 1 hour. While culturing in the Prep station, a sensor cartridge is calibrated for 1 hour and added into a plate containing cells, and OCR and ECAR analyses are performed.
The measured values of OCR and ECAR of the compounds are calculated with reference to the measured values of OCR and ECAR of the control group which is set at 0% and the values of OCR and ECAR of phenformin, which was used as the reference drug, set at 100%, and those compounds which show an improved effect compared to those of phenformin are selected.
From the primarily-selected compounds, those compounds which show an improved effect are treated at various concentrations (0 μM, 0.5 μM, 1 μM, 5 μM, 10 μM, and 20 μM) and their reactivity according to concentration was obtained.

HCT116 cells = test: Inhibitory effect against cancer cell proliferation (MTT); assay type: cell-based, human; conditions: Homo sapiens, HCT-116; HCT116, MTT, 48 hours; read-out: IC50 (uM) @ HCT116
Procedure: The formazane crystals thus formed were dissolved using dimethyl sulfoxide (DMSO) and absorbance of the solution was measured at 560 nm. After culturing for 48 hours, […] synthesized in Examples was indicated as cell viability (%) according to each treated concentration.

AMPKa [pT172] = test: AMPKa activation [pT172] in MCF7 cell; assay type: cell-based

Compound	Emax at 10 µM (A549 cell line; read-out: ECAR (A549, 3 hrs))	Emax at 10 µM (A549 cell line; read-out: OCR (A549, 3 hrs))	IC50 (HCT116 cells)	AMPKa activation [pT172] (Unit/ml) @ MCF7 cell (AMPKa [pT172]; 50 uM)	AMPKa activation [pT172] (Unit/ml) @ MCF7 cell (AMPKa [pT172]; 5 uM)	AMPKa activation [pT172] (Unit/ml) @ MCF7 cell (AMPKa [pT172]; 10 uM)
COc1ccc(CCCNC(=N)NC(=N)N)cc1 [Example 148, N1-(4-methoxy)phenylpropyl Biguanide Hydrochloride]	160%	1%				
N=C(N)NC(=N)NCc1ccco1 [Example 144, N1-(furan-2-yl)methyl Biguanide Hydrochloride]	7%	47%				
N=C(NC(=N)N1CCCC1)Nc1c(F)cccc1F [Example 80, N1-pyrrolidin-N5-(2,6-difluoro)phenyl Biguanide Hydrochloride]	1%	3%				
N=C(N)NC(=N)NCc1cccc(I)c1 [Example 150, N1-(3-iodo)benzyl Biguanide Hydrochloride]	125%	105%				
N=C(N)NC(=N)NCc1ccc(O)cc1F [Example 146, N1-(2-fluoro-4-hydroxy)benzyl Biguanide Hydrochloride]	28%	109%				
CC1CC(=O)N=C(NC(=N)N)N1.Cl (stereo not shown) [Example 164, Hydrochloride]	9%	-1%				
C/N=C(/NC(=N)N1CCCC1)Nc1ccc(OC(F)(F)F)cc1 [Example 105, N1-(4-trifluoromethoxy)phenyl-N2-methyl-N5-pyrrolidine Biguanide Hydrochloride]	-25.5%	25.1%				
C/N=C(/NC(=N)N1CCCC1)N(C)c1ccc(OC(F)(F)F)cc1 [Example 106, N1-methyl-N1-(4-trifluoromethoxy)phenyl-N2-methyl-N5-pyrrolidine Biguanide Hydrochloride]	-7.5%	-6.6%				
N=C(N)N/C(=N/CCc1ccc2c(c1)OCO2)NCCc1cccs1 [Example 104, N1-2-thiophen-2-)ethyl-N2-2-benzo[d][1,3]dioxol-5-yl)ethyl Biguanide Hydrochloride]	-8.3%	31.3%				
CN(C)C(=N)NC(=N)N(C)c1ccc(OC(F)(F)F)cc1 [Example 85, N1,N1-dimethyl-N5-methyl-N5-(4-trifluoromethoxy)phenyl Biguanide Hydrochloride]	31%	-6%				
N=C(N)N/C(=N/C1CCCC1)NCc1ccc2c(c1)OCO2 [Example 107, N1-(benzo[d][1,3]dioxol-5-yl)methyl-N2-cyclopentyl Biguanide Hydrochloride]	-8.9%	-4.4%				
N=C(N)NC(=N)NCc1ccccc1I [Example 149, N1-(2-iodo)benzyl Biguanide Hydrochloride]	36%	20%				
Cl.N=C(N)NC(=N)NCc1ccccc1 [Example 124, N1-benzyl Biguanide Hydrochloride]			56.7 µM	8.4 Unit/ml		
CN1CCN(C(=N)NC(=N)NCc2cccc(C(F)(F)F)c2)CC1.Cl [Example 20, N1-(4-methyl)piperazin-N5-(3-trifluoromethyl)benzyl Biguanide Hydrochloride]			> 100 µM	5.6 Unit/ml	2.9 Unit/ml	4.5 Unit/ml
C=CCNC(=N)NC(=N)N.Cl [Example 111, N1-(2-prophene) Biguanide Hydrochloride]			35.7 µM	30.2 Unit/ml	11.4 Unit/ml	12.1 Unit/ml
N=C(N)N/C(=N/CCc1ccccc1)NCCc1cccs1 [Example 103, N1 (2-thiophen-2-yl)ethyl-N2-phenethyl Biguanide Hydrochloride]	-43%	36%				
Cl.N=C(NC(=N)N1CCCCC1)Nc1ccc(N2CCOCC2)cc1 [Example 71, N1-piperidin-N5-(4-morpholin-4-yl)phenyl Biguanide Hydrochloride]			> 100 µM	5.8 Unit/ml	3.8 Unit/ml	4.3 Unit/ml
Cl.N=C(NC(=N)N1CCCC1)Nc1ccc(F)c(Cl)c1 [Example 77, N1-pyrrolidin-N5-(3-chloro-4-fluoro)phenyl Biguanide Hydrochloride]			50.6 µM	13.9 Unit/ml	4.5 Unit/ml	5.7 Unit/ml
CCCN(CCC)C(=N)NC(=N)N(C1CCCCC1)C1CCCCC1.Cl [Example 15, N1,N1-dipropyl-N5,N5-dicyclohexyl Biguanide Hydrochloride]			> 100 µM	6.1 Unit/ml		
Cl.N=C(N)NC(=N)NCc1ccc(C(F)(F)F)cc1 [Example 141, N1-(4-trifluoromethyl)benzyl Biguanide Hydrochloride]			> 100 µM	10.3 Unit/ml	5.6 Unit/ml	6.1 Unit/ml
CC1CCCN(C(=N)NC(=N)Nc2cccc(C(F)(F)F)c2)C1.Cl (stereo not shown) [Example 51, N1-(3-methyl)piperidin-N5-(3-trifluoromethyl)phenyl Biguanide Hydrochloride]			6.6 µM	cell death	12.5 Unit/ml	15.2 Unit/ml
Cl.N=C(N)NC(=N)NCc1ccc(Cl)cc1 [Example 129, N1-(4-chloro)benzyl Biguanide Hydrochloride]			> 100 µM	11.4 Unit/ml	9.2 Unit/ml	7.0 Unit/ml
CC(=O)c1ccc(NC(=N)NC(=N)N)cc1.Cl [Example 117, N1-(4-acetyl)phenyl Biguanide Hydrochloride]			> 100 µM	6.2 Unit/ml		
CN1CCN(C(=N)NC(=N)Nc2ccc(Cl)c(Cl)c2)CC1.Cl [Example 37, N1-(4-methyl)piperazin-N5-(3,4-dichloro)phenyl Biguanide Hydrochloride]			32.8 µM	15.0 Unit/ml	5.8 Unit/ml	7.5 Unit/ml
CC/N=C(\NCCc1ccc2c(c1)OCO2)NC(=N)N.Cl [Example 101, N1-2-(benzo[d][1,3]dioxol-5-yl)ethyl-N2-ethyl Biguanide Hydrochloride]			> 100 µM	5.9 Unit/ml	4.1 Unit/ml	3.6 Unit/ml
CCOC1CCN(C(=N)NC(=N)Nc2cccc(C(F)(F)F)c2)CC1.Cl [Example 24, N1-(4-ethoxy)piperidin-N5-(3-trifluoromethyl)phenyl Biguanide Hydrochloride]			11.5 µM	cell death	5.2 Unit/ml	4.7 Unit/ml
Cl.N=C(NC(=N)N1CCCC1)Nc1cccc(Cl)c1Cl [Example 78, N1-pyrrolidin-N5-(2,3-dichloro)phenyl Biguanide Hydrochloride]			58.3 µM	3.8 Unit/ml	3.4 Unit/ml	3.4 Unit/ml
CN1CCN(C(=N)NC(=N)Nc2ccc(C(F)(F)F)cc2)CC1.Cl [Example 19, N1-(4-methyl)piperazin-N5-(4-trifluoromethyl)phenyl Biguanide Hydrochloride]			41.7 µM	15.3 Unit/ml	3.3 Unit/ml	4.3 Unit/ml
CC1CCN(C(=N)NC(=N)Nc2ccc(OC(F)(F)F)c(F)c2)CC1.Cl [Example 59, N1-(4-methyl)piperidin-N5-(3-fluoro-4-trifluoromethoxy)phenyl Biguanide Hydrochloride]			2.3 µM	cell death	9.8 Unit/ml	13.3 Unit/ml
CN1CCN(C(=N)NC(=N)NCc2ccc(C(F)(F)F)cc2)CC1.Cl [Example 18, N1-(4-methyl)piperazin-N5-(4-trifluoromethyl)benzyl Biguanide Hydrochloride]			> 100 µM	13.3 Unit/ml	7.1 Unit/ml	8.6 Unit/ml
